{"source": "paper PMC8765781", "about": "“A platform of assays for the discovery of anti-Zika small-molecules with activity in a 3D-bioprinted outer-blood-retina model” (PLoS ONE, 2022)", "key": {"[1]": {"system": "ZIKV-RLuc (Cambodian strain FSS13025)", "experiment": "microbe, parasite or virus in culture", "assay_type": "cell-based, Zika virus", "conditions": "read-out: Rluc-ZIKV (ZIKV Antiviral Assays), IC50"}, "[2]": {"system": "human neuronal progenitor cells (NPC)"}, "[3]": {"system": "ZIKV-mCherry (Cambodian strain FSS13025)", "experiment": "microbe, parasite or virus in culture", "assay_type": "cell-based, Zika virus"}, "[4]": {"system": "DENV (Dengue virus type 2, strain New Guinea C)"}, "[5]": {"system": "wild-type ZIKV (Ugandan MR766 strain) in Vero cells", "experiment": "ZIKV cytopathic effect (CPE) inhibition qHTS assay, CellTiter-Glo readout", "assay_type": "cell-based, Zika virus", "conditions": "for IC50: read-out: ZIKV-infection (CPE, ZIKV Antiviral Assays), IC50"}, "[6]": {"system": "mCherry-ZIKV in human neuronal progenitor cells", "experiment": "microbe, parasite or virus in culture", "assay_type": "cell-based, Zika virus"}, "[7]": {"system": "caspase-3 activity induced by ZIKV in Vero cells", "experiment": "cells", "assay_type": "cell-based", "conditions": "read-out: Caspase 3 (ZIKV Antiviral Assays), IC50"}, "in vitro [8]": {"experiment": "in vitro", "conditions": "African green monkey"}, "[9]": {"system": "Solute carrier organic anion transporter family member 1B1", "conditions": "cited from earlier work"}, "[10]": {"molecular_target": "Tyrosine-protein phosphatase non-receptor type 1", "conditions": "cited from earlier work"}, "in vitro [11]": {"experiment": "in vitro", "conditions": "human"}, "[12]": {"system": "Transcription factor AP-1", "conditions": "cited from earlier work"}, "[13]": {"conditions": "Zika virus, Vero, read-out: Log AC50 (M) (converted)"}}, "note": "Where two headings read alike, the source gives them in different places."}
{"molecule": "5-methylcytidine [NCGC00484060-01, reference compound]", "values": [{"measurement": "IC50", "setting": "[1]", "value": 18.5, "unit": "µM"}, {"measurement": "SI value WHV (CC50/EC50)", "setting": "WNV (Kern515/WN02)", "value": 1.8}, {"measurement": "Selectivity Index WHV (CC50/EC50)", "setting": "WNV (Kern515/WN02)", "value": 2}, {"measurement": "WHV active Yes/No", "setting": "WNV (Kern515/WN02)", "value": "No"}, {"measurement": "CC50", "setting": "HepG2 cells", "value": "> 30", "unit": "µM"}, {"measurement": "CC50", "setting": "[2]", "value": 19.2, "unit": "µM"}, {"measurement": "CC-v2 (curve class of the dose response curve)", "setting": "[3]", "value": -1.2}, {"measurement": "Efficacy (difference between neutral response and maximum compound response)", "setting": "[3]", "value": -45.337}, {"measurement": "Log AC50 (M)", "setting": "[3]", "value": -5.0741, "unit": "M"}, {"measurement": "Max Resp (difference between neutral response and response at highest compound concentration)", "setting": "[3]", "value": -100.16}, {"measurement": "AC50", "setting": "[3]; read-out: AC50", "value": "8.43e-06", "unit": "M"}, {"measurement": "SI value ZIKV (CC50/EC50)", "setting": "ZIKV", "value": 28}, {"measurement": "Selectivity Index ZIKV (CC50/EC50)", "setting": "ZIKV", "value": 28}, {"measurement": "ZIKV active Yes/No", "setting": "ZIKV", "value": "Yes"}, {"measurement": "DENV active Yes/No", "setting": "[4]", "value": "No"}, {"measurement": "CC-v2 (curve class classification of the dose response curve)", "setting": "[5]", "value": -1.2}, {"measurement": "Efficacy", "setting": "[5]", "value": -42.621}, {"measurement": "Log AC50 (M)", "setting": "[5]", "value": -4.8362, "unit": "M"}, {"measurement": "Max Resp", "setting": "[5]", "value": -39.681}, {"measurement": "AC50", "setting": "[5]; read-out: AC50", "value": "1.46e-05", "unit": "M"}, {"measurement": "IC50", "setting": "[5]", "value": 14.6, "unit": "µM"}, {"measurement": "CC-v2 (curve class)", "setting": "[6]", "value": -2.2}, {"measurement": "Efficacy", "setting": "[6]", "value": -64.821}, {"measurement": "Log AC50 (M)", "setting": "[6]", "value": -4.4, "unit": "M"}, {"measurement": "Max Resp", "setting": "[6]", "value": -51.196}, {"measurement": "AC50", "setting": "[6]; read-out: AC50", "value": 39.8, "unit": "µM"}, {"measurement": "IC50", "setting": "[6]; read-out: NPC (ZIKV Antiviral Assays), IC50", "value": 39.8, "unit": "µM"}, {"measurement": "CC50", "setting": "Vero cells", "value": "> 50", "unit": "µM"}, {"measurement": "IC50", "setting": "[7]; ZIKV-infected Vero cells, 48 hr, unit inferred", "value": "> 48", "unit": "µM"}, {"measurement": "SI value YFV (CC50/EC50)", "setting": "YFV (YFV 17D)", "value": 3}, {"measurement": "Selectivity Index YFV (CC50/EC50)", "setting": "YFV (YFV 17D)", "value": 3}, {"measurement": "YFV active Yes/No", "setting": "YFV (YFV 17D)", "value": "Yes"}]}
{"molecule": "CC1OC(OC2C(OC(=O)[C@]34CCC(C)(C)C[C@H]3C3=CCC5[C@@]6(C)CC[C@H](OC7OC(C(=O)O)C(O)C(O)C7O)C(C)(C)C6CC[C@@]5(C)[C@]3(C)CC4O)OC(CO)C2O)C(O)C(O)C1OC1OCC(O)C(O)C1O", "note": "(some centres unmarked) [NCGC00381102-01]", "values": [{"measurement": "IC50", "setting": "[1]; Zika virus, Vero, 48 h", "value": 6.19, "unit": "µM"}, {"measurement": "CC50 at 48 h", "setting": "in vitro [8]; Vero cells", "value": "> 50", "unit": "µM"}, {"measurement": "CC-v2 (curve class of the dose response curve)", "setting": "[3]", "value": -1.4}, {"measurement": "Efficacy (difference between neutral response and maximum compound response)", "setting": "[3]", "value": -69.614}, {"measurement": "Max Resp (difference between neutral response and response at highest compound concentration)", "setting": "[3]", "value": -99.592}, {"measurement": "-Log(IC50) M, Solute carrier organic anion transporter family member 1B1", "setting": "[9]", "value": "Solute carrier organic anion transporter family member 1B1 -Log(IC50) M~5.40~-Log(IC50) M~0.8333~Target"}, {"measurement": "CC-v2 (curve class classification of the dose response curve)", "setting": "[5]", "value": -3}, {"measurement": "Efficacy", "setting": "[5]", "value": -33.279}, {"measurement": "AC50", "setting": "[5]; Zika virus, Vero", "value": "1.55e-05", "unit": "M"}, {"measurement": "IC50", "setting": "[5]; Zika virus, Vero, 48 h", "value": 15.5, "unit": "µM"}, {"measurement": "AC50", "setting": "[5]; [13]", "value": "1.55e-05", "unit": "M"}, {"measurement": "IC50", "setting": "[7]; Zika virus, Vero, 48 h", "value": "> 48", "unit": "µM"}]}
{"molecule": "CC1(C)CC[C@]2(C(=O)O)CC[C@]3(C)C(=CC[C@@H]4[C@@]5(C)CC[C@H](O[C@@H]6O[C@H](C(=O)O)[C@@H](O)[C@H](O)[C@H]6O)C(C)(C)[C@@H]5CC[C@]43C)[C@@H]2C1", "note": "[NCGC00384528-01, Calenduloside E]", "values": [{"measurement": "IC50", "setting": "[1]; Zika virus, Vero, 48 h", "value": 11, "unit": "µM"}, {"measurement": "-Log(IC50) M, Tyrosine-protein phosphatase non-receptor type 1", "setting": "[10]", "value": "Tyrosine-protein phosphatase non-receptor type 1 -Log(IC50) M~5.46~-Log(IC50) M~0.7284~Target"}, {"measurement": "CC50 at 48 h", "setting": "in vitro [8]; Vero cells", "value": "> 50", "unit": "µM"}, {"measurement": "CC-v2 (curve class of the dose response curve)", "setting": "[3]", "value": -1.2}, {"measurement": "Efficacy (difference between neutral response and maximum compound response)", "setting": "[3]", "value": -57.341}, {"measurement": "Max Resp (difference between neutral response and response at highest compound concentration)", "setting": "[3]", "value": -100.305}, {"measurement": "AC50", "setting": "[3]; Zika virus, Vero", "value": "4.99e-06", "unit": "M"}, {"measurement": "AC50", "setting": "[3]; [13]", "value": "4.99e-06", "unit": "M"}, {"measurement": "Efficacy", "setting": "[5]", "value": -27.436}, {"measurement": "AC50", "setting": "[5]; Zika virus, Vero", "value": "1.37e-05", "unit": "M"}, {"measurement": "IC50", "setting": "[5]; Zika virus, Vero, 48 h", "value": 13.7, "unit": "µM"}, {"measurement": "AC50", "setting": "[5]; [13]", "value": "1.37e-05", "unit": "M"}, {"measurement": "CC50", "setting": "in vitro [11]", "value": "> 30", "unit": "µM"}, {"measurement": "IC50", "setting": "[7]; Zika virus, Vero, 48 h", "value": 0.001, "unit": "µM"}]}
{"molecule": "CC1(C)CC[C@]2(C(=O)O)CC[C@]3(C)C(=CCC4[C@@]5(C)CC[C@H](O[C@H]6O[C@H](C(=O)O)[C@@H](O)[C@H](O[C@@H]7O[C@H](CO)[C@H](O)[C@H](O)[C@H]7O)[C@H]6O)C(C)(C)C5CC[C@]43C)[C@@H]2C1", "note": "(some centres unmarked) [NCGC00385211-01, Calenduloside G]", "values": [{"measurement": "IC50", "setting": "[1]; Zika virus, Vero, 48 h", "value": 2.2, "unit": "µM"}, {"measurement": "CC50 at 48 h", "setting": "in vitro [8]", "value": "> 50", "unit": "µM"}, {"measurement": "CC-v2 (curve class of the dose response curve)", "setting": "[3]", "value": -1.3}, {"measurement": "Efficacy (difference between neutral response and maximum compound response)", "setting": "[3]", "value": -66.223}, {"measurement": "Max Resp (difference between neutral response and response at highest compound concentration)", "setting": "[3]", "value": -100.305}, {"measurement": "AC50", "setting": "[3]; Zika virus, Vero", "value": "3.19e-06", "unit": "M"}, {"measurement": "AC50", "setting": "[3]; [13]", "value": "3.19e-06", "unit": "M"}, {"measurement": "Efficacy", "setting": "[5]", "value": -58.411}, {"measurement": "AC50", "setting": "[5]; Zika virus, Vero", "value": "1.23e-05", "unit": "M"}, {"measurement": "IC50", "setting": "[5]; Zika virus, Vero, 48 h", "value": 12.3, "unit": "µM"}, {"measurement": "AC50", "setting": "[5]; [13]", "value": "1.23e-05", "unit": "M"}, {"measurement": "IC50", "setting": "[7]; Zika virus, Vero, 48 h", "value": 1.39, "unit": "µM"}, {"measurement": "-Log(IC50) M, Transcription factor AP-1", "setting": "[12]", "value": "Transcription factor AP-1 -Log(IC50) M~4.74~-Log(IC50) M~0.8101~Target"}]}
